Results from patent US8057810B2, “Peptide substance revealing an immunogeroprotective effect, pharmaceutical composition on its base and the method of its application” (priority 2006, dated 2011).
Residues, ends and D or L forms follow the SMILES beside them.

Assays:
[1] = test system: old rats' spleen explants; assay: Development of spleen explants taken from old rats (area index); format: cell-based; conditions: 10 ng/ml
Description: (§1) The experiments were staged on 35 fragments of the thymus and 45 fragments of the spleen taken from rats aged 24 months. Nutritional medium for cultivation consisted of 35% Eagle's solution, 25% calf fetal serum, 35% Hanx solution, 5% chicken embryonic extract, with the addition of glucose (0.6%), insulin (0.5 U/ml), penicillin (100 U/ml), glutamin (2 mM). […]
(§2) Peptide H-Glu-Asp-Pro-OH was added into the experimental medium in concentrations of 0.5, 10 and 100 ng/ml.
(§3) Area index (AI)—the ratio of total explant area including the growth zone to the initial area of thymus or spleen fragment was used as a criterion for measuring the biological activity. AI values were expressed in percent, control AI value being taken as 100%.

[2] = test system: thymus epithelium cells, line VTEC2.H/S; assay: Proliferation of thymus epithelium cells in ageing cultures (3H-thymidin); format: cell-based, human; parameters: unit not given here
Description: The study was staged in vitro in the culture of thymus epithelium cells, which were represented by cells of suspension line VTEC2.H/S, obtained by transforming thymus epithelial cells of human embryo thymus with the material containing SV40 virus, and subsequent cloning of transformed cells.
Peptide H-Glu-Asp-Pro-OH was introduced into cell cultures in successive dilutions to ultimate concentrations of 2, 20 and 200 ng/ml. Proliferation of thymus epithelium cells subjected to 1, 4 and 7 passages was estimated using a radiometrical method, judging by the content of ^3H-thymidin.

[3] = test system: old rats' thymus explants; assay: Development of thymus explants taken from old rats (area index); format: cell-based; conditions: 0.5 ng/ml; 3rd day of cultivating; rats aged 24 months
Description: as §1, §2, §3

white mongrel male rats = assay: Subacute toxicity, 90 days intramuscular; format: in vivo; conditions: i.m. daily for 90 days, 1 μg/kg, 0.1 mg/kg, 1 mg/kg (100-1000 times the therapeutic dose)
Description: Common toxicity of H-Glu-Asp-Pro-OH was studied according to the requirements stated in the “Manual for experimental (pre-clinical) study of new pharmacological substances” (2005): acute toxicity in case of single administration of the substance and sub-acute and chronic toxicity in case of long-term administration of the peptide.
The study of acute toxicity was performed on 60 white mongrel male mice with body weight of 18-21 g. The animals were randomly subdivided into 6 equal groups. The substance was administered to the animals once, intramuscularly, in the doses of 1 mg/kg, 2 mg/kg, 3 mg/kg, 4 mg/kg, 5 mg/kg in 0.25 ml of sterile 0.9% NaCl solution. The control animals received 0.9% NaCl solution in the same volume. The study of subacute toxicity was performed on 50 white mongrel male rats with body weight of 170-210 g. Experimental animals received the substance daily, intramuscularly for 90 days in the doses of 1 μg/kg, 0.1 mg/kg, 1 mg/kg in 0.5 ml of sterile 0.9% NaCl solution. […] Upon completion of the experiment biochemical and coagulologic indices of the blood were also evaluated. […] Traditional methods were used for the evaluation of the following indices of the animals' peripheric blood: the quantity of erythrocytes, hemoglobin, reticulocytes, thrombocytes, leukocytes, leukocyte formula, erythrocyte sedimentation rate (ESR), erythrocyte resistance. […]

## N[C@@H](CCC(=O)O)C(=O)N[C@@H](CC(=O)O)C(=O)N1CCC[C@H]1C(=O)O [Peptide H-Glu-Asp-Pro-OH, glutamyl-aspartyl-proline] (H-Glu-Asp-Pro-OH)
[1]; 7th day
  Stimulating effect on spleen explants at longer term: still visible, although it was less pronounced
[1]; rats aged 24 months
  Area index (AI) in spleen explants, increase: 28%
[2]; 2 ng/ml, 1st passage
  Proliferation of thymus epithelial cells (3H-thymidin content): 1480 ± 89
[2]; 2 ng/ml, 4th passage
  Proliferation of thymus epithelial cells (3H-thymidin content): 730 ± 54
[2]; 2 ng/ml, 7th passage
  Proliferation of thymus epithelial cells (3H-thymidin content): 705 ± 46
[2]; 20 ng/ml, 1st passage
  Proliferation of thymus epithelial cells (3H-thymidin content): 1585 ± 95
[2]; 20 ng/ml, 4th passage
  Proliferation of thymus epithelial cells (3H-thymidin content): 680 ± 48
[2]; 20 ng/ml, 7th passage
  Proliferation of thymus epithelial cells (3H-thymidin content): 680 ± 41
[2]; 200 ng/ml, 1st passage
  Proliferation of thymus epithelial cells (3H-thymidin content): 1530 ± 91
[2]; 200 ng/ml, 4th passage
  Proliferation of thymus epithelial cells (3H-thymidin content): 760 ± 58
[2]; 200 ng/ml, 7th passage
  Proliferation of thymus epithelial cells (3H-thymidin content): 795 ± 49
[3]
  Area index (AI) in thymus explants, increase as compared to the control AI: 24%
White mongrel male rats
  Subacute toxicity: side effects: absence of any side effects
